Data as given in patent US20110300198A1, “HYDROCOLLOID - ESSENTIAL OIL PATCHES” (priority 2010, published 2011).
Counter-ions that a name gives are not always drawn. Marks after values point to notes of the source that are not given here.

Assays:
[1] = Decomposition of internal standards in blood and skin extract (GC, GC-MS); type: in vitro ADME, rat; details: for Stability in the blood: GC-MS
Protocol: Linalyl isovalerate and geranyl formate were tested for their suitability as internal standards for linalool and linalyl acetate using headspace (HS)-SPME. Linalyl isovalerate was chosen as the most appropriate internal standard on the basis of area formed under the peak. A stock solution of linalyl isovalerate in acetonitrile (25 mg L^−1) was further diluted with acetonitrile to produce an aqueous solution of linalyl isovalerate (5 mg L^−1). A 10-μl volume of the aqueous linalyl isovalerate stock solution was added as the internal standard to each sample. Standard was prepared from 0.5 ml of blank blood, 10 μl internal standard (0.0026 mg linalyl isovalerate in 25 ml acetonitrile) and an appropriate dilution of lavender oil in 10 μl acetonitrile. Lavender oil was first dissolved in acetonitrile (625 mg L^−1) and further diluted with acetonitrile to make intermediate standards (0.5, 1, 5, 25 and 125 mg L^−1). The calibration curves were plotted using the peak area ratio of linalool (the main constituent of lavender oil) and linalyl isovalerate vs. linalool concentration. A standard stock solution of lavender oil (625 mg L^−1) was prepared in acetonitrile. Calibration standards for determination of linear dynamic range were prepared by serial dilutions with acetonitrile. For quantitative analysis of lavender oil in the blood, working standard solutions containing 0.5, 1, 5, 25 and 125 mg L^−1 of lavender were prepared by dilution of the 625 mg L^−1 solution with acetonitrile. […] The compounds absorbed on the fiber were detached and analyzed by exposing the fiber for 5 min in the injection port.
Two standards were checked for their suitability to this study: linalyl isovalerate and geranyl formate. […] Thus, although it is not possible to quantify linalool since the lavender essential oil may not be its only source, it is possible to quantify other components of lavender, and linalyl isovalerate was chosen to serve as the standard in the blood.

[2] = In-vivo experiment with HP-5 column, constituents in blood; design: species or system rat; details: male, Sprague-Dawley, rat, in vivo
From the text: (§1) Male Sprague-Dawley rats, weighing 300-350 g, were used in the studies (Harlan, Rehovot, Israel). The experimental protocols were approved by the Hebrew University of Jerusalem Committee on the Use and Care of Animals. Rats were maintained under specified-pathogen-free (SPF) conditions and were allowed to acclimate to the environment for at least 7 days before their use in the study. Rats were anesthetized and the fur on their stomach shaved prior to exposure. Gum karaya patches with and without lavender essential oil were applied to the rat's stomach skin. Each rat was housed in an individual cage in order to prevent oral contamination of the essential oil by one rat eating another's patch. Blood samples (0.5 ml) were taken at 0, 12, 24, 36, 48 and 60 h from a nick at the tip of tail to determine contents of essential-oil components. Rats were restrained and the tail was gently massaged to facilitate blood collection. Blood samples were collected in vials containing 0.1 ml heparin (100 kU, Sigma). A 10-μl volume of aqueous linalyl isovalerate stock solution was added as an internal standard to each blood sample and samples were stored at −80° C. After 60 h, patches were removed and the application site was wiped with 70% alcohol. Animals were sacrificed and the patch of stomach skin to which the essential oil patch had been applied was removed and minced into small pieces. The skin pieces were placed in 1 ml of ethanol containing linalyl isovalerate as the internal standard and sonicated for 30 min after heating to 50° C. A 10-μl aliquot was then injected straight into the gas chromatograph. A urine sample (0.5 ml) was obtained from the bladder immediately after sacrifice. Urine samples were similarly analyzed by gas chromatography (GC).
Blood (0.5 ml) or phosphate buffer (0.5 ml) was collected at t=0, 12, 24, 36, 48 and 60 h. Blood samples were placed in Eppendorf heparin-coated glass vials (Agilent) by heparin-washed syringe, which were sealed with septa and screw caps. Each vial contained 100 μl of heparin and blood samples were frozen at −80° C. for storage. Prior to analysis, the blood or phosphate buffer was thawed to room temperature, a 10-μl volume of internal standards (6.5 mg linalyl isovalerate and 6.5 mg geranyl formate in 25 ml acetonitrile) was added to the vial and then the mixture was vortexed. The vials were tightly capped using a clear cap with septum. The septa were pre-punctured immediately before analysis using a needle to facilitate the insertion of the fiber sheath. The fiber sheath was inserted through the septum, and positioned to expose the fiber in the center of the headspace. The vial was placed on a heating block to maintain temperature at a constant 50° C. and the solid-phase microextraction (SPME) assembly was clamped securely. Absorption time was 30 min. No stirring was required. After absorption, the SPME fiber sheath was immediately transferred to the GC injector for desorption for 5 min and GC analysis.
GC was performed on an Agilent 7890A gas chromatograph equipped with a split/splitless capillary injector, flame ionization detection (FID) system and GC Chem Station (Version B.03.01; Agilent Technologies 2007). Chromatography was carried out on a WAX or HP-5 column (30 m×0.32 mm×0.25 μm). The GC operating conditions were: splitless or split 1:40 injector 240° C., oven 50° C. for 1 min and then 10° C. min^−1 to 160° C., then 25° C. min^−1 to 240° C. and held for 6 min; the carrier gas was hydrogen.
In this experiment, patches containing lavender essential oil were adhered to the abdomen area. Patches without essential oil served as blanks. […] Detection under splitless conditions facilitated the detection of linalyl acetate, linalool, camphor, borneol and α-terpineol, the latter two being additional constituents detected only under these conditions. High concentrations of linalool, borneol and camphor were detected, in comparison to low levels of terpeneol and linalyl acetate. […]

[3] = cited from earlier work
[4] = In-vivo experiment with WAX column, constituents in blood; design: species or system rat; details: 7.5% lavender oil patch on abdomen; split injection
From the text: as §1, with “After 60 h, patches were removed and the application site was wiped with 70% alcohol. Animals were sacrificed and the patch of stomach skin to which the essential oil patch had been applied was removed and minced into small pieces. The skin pieces were placed in 1 ml of ethanol containing linalyl isovalerate as the internal standard and sonicated for 30 min after heating to 50° C. A 10-μl aliquot was then injected straight into the gas chromatograph. A urine sample (0.5 ml) was obtained from the bladder immediately after sacrifice.” left out, “(GC). […]” for “(GC).”
Patches that included lavender essential oil were adhered to the abdomen skin for 60 h. […] Between 12 and 36 h, a similar, non-significant change in levels was detected. […]

[5] = Ex-vivo transfer of essential-oil constituents through the skin in Franz diffusion cells; type: in vitro ADME, rat; details: for Accumulated concentration transferred through the skin: from gum karaya-Lavandula angustifolia essential oil patch (7.5% oil); for Accumulated concentration diffused through the skin: mixture of Lavandula angustifolia essential oil and almond oil rubbed on the skin
Protocol: Ex-vivo release studies were performed in Franz diffusion cells (FCs) (PermeGear, Hellertown, Pa.). Stomach skin pieces (1.2 cm×1.2 cm) from a male rat, which were stored in the freezer for 1 month, were thawed at room temperature and placed in glass FCs. The surface area for absorption was 0.64 cm2. The FCs were thermoregulated with a water jacket at 32° C. The 4.5-ml volume of the receptor chamber of the FC was filled with a receptor solution containing 5% (w/v) bovine serum albumin (BSA) diluted with phosphate buffer pH 7.4. […] The receptor solution was continuously agitated with a magnetic stirrer. During the experiments, the donor compartments and sampling arms were sealed to prevent evaporation. The fluid in the receptor chamber was removed after different periods of time (0, 6, 12, 24, 36 and 48 h) and replaced with fresh phosphate buffer solution. Samples were stored at 4° C. after sampling, prior to analysis. Samples were analyzed in a gas chromatograph (Agilent Technologies, Santa Clara, Calif.) with a WAX 30 m×0.32 mm×0.25 μm (Agilent) column.
Transdermal delivery of essential-oil components through rat skin from both lavender essential oil, which includes a high proportion of terpenoids, and Valencia orange essential oil, which includes a considerable amount of terpene, entrapped within gum-karaya-based patches, was examined. In addition to the regular patch adhered to the skin to be tested for essential-oil delivery by the traditional FCs and by in vivo tests (detailed below), another experiment was performed in which the skin was smeared with an almond-essential oil mixture, in order to partially imitate the situation in which the skin is massaged in an aromatherapy session. All experiments were conducted at ambient temperature and the inclusion of the essential oil as part of the almond oil-essential oil mixture (for the massage-like simulation) was equal in quantity and proportion to the inclusion of essential oil within the patch.

[6] = Preliminary in-vivo experiment, constituents in blood (GC, WAX column); design: species or system rat; details: rat, in vivo
[7] = cited from earlier work; remark: listed apart in the source

CC(C)=CCC/C(C)=C/COC=O [geranyl formate]
Stability in the blood [1]: decomposes in the blood

CC1(C)C2CCC1(C)C(O)C2 (stereo not drawn) [borneol, Borneol]
concentration at 60 h [2]: 31 ng/mL

C=C(C)[C@H]1CC=C(C)CC1 [d-Limonene]
Log P [3]: about 4

CC12CCC(CC1=O)C2(C)C (stereo not drawn) [Camphor]
concentration at 60 h [2]: 35 ng/mL
Level in blood after 60 h [4]: no traces
% diffused (of initial amount of entrapped essential oil) ([5]; Almond-lavandula mixture, 0 h): 0.00^a %
% diffused (of initial amount of entrapped essential oil) ([5]; Almond-lavandula mixture, 6 h): 0.01 ± 0.01^a %
% diffused (of initial amount of entrapped essential oil) ([5]; Almond-lavandula mixture, 12 h): 1.15 ± 1.26^a %
% diffused (of initial amount of entrapped essential oil) ([5]; Almond-lavandula mixture, 24 h): 2.28 ± 0.08^a %
% diffused (of initial amount of entrapped essential oil) ([5]; Lavandula patch, 0 h): 0.00^a %
% diffused (of initial amount of entrapped essential oil) ([5]; Lavandula patch, 6 h): 0.70 ± 0.04^b %
% diffused (of initial amount of entrapped essential oil) ([5]; Lavandula patch, 12 h): 1.02 ± 0.01^c %
% diffused (of initial amount of entrapped essential oil) ([5]; Lavandula patch, 24 h): 2.10 ± 0.32^d %
Accumulated concentration transferred through the skin ([5]; 6 h): 0.51 ± 0.33^a mg/L
Accumulated concentration transferred through the skin ([5]; 12 h): 0.74 ± 0.02^b mg/L
Accumulated concentration transferred through the skin ([5]; 24 h): 1.53 ± 0.13^c mg/L
Accumulated concentration diffused through the skin ([5]; 6 h): 0.01 ± 0.03^a mg L^−1
Accumulated concentration diffused through the skin ([5]; 12 h): 0.89 ± 0.98^a mg L^−1
Accumulated concentration diffused through the skin ([5]; 24 h): 1.78 ± 0.06^a mg L^−1
Calculated steady-state flux ([5]; rubbing in a mixture with almond oil): 5.7×10^−4 mg.cm^−2 h^−1
Calculated steady-state flux ([5]; transferred from a lavender essential oil patch): 4.3×10^−4 mg.cm^2 h^−1
Log P [3]: about 3
Detection in blood [6]: No levels of camphor were detected
Solubility in water [7]: relatively high

C=CC(C)(CCC=C(C)C)OC(=O)CC(C)C (stereo not drawn) [linalyl isovalerate]
Stability in the blood [1]: decomposes in the blood
Stability in the skin extract ([1]; skin with essential oil-containing patch): did not decompose

CC1=CCC(C(C)(C)O)CC1 (stereo not drawn) [α-Terpeneol, α-Terpineol]
Level in blood from 12 h onwards [2]: 5 to 9 ng/mL
